From US20250332173A1, “COMPOUNDS AND METHODS FOR MODULATING NUCLEIC ACID SPLICING” (REMIX THERAPEUTICS INC., priority 2021, published 2025)
pIC50: −log10 of the molar value. Like-named read-outs stand apart in the source and are kept apart here.

Legend:
Target C = experiment: RT-qPCR splicing assay panel, Target C canonical junction (CJ) mRNA; type: cell-based, human; conditions: Homo sapiens; Table 5 panel; canonical junction qPCR; compound concentration having 50% response in CJ decrease; read-out: Target C IC50 (decrease in CJ mRNA levels)
Summary of the method: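 A673 or K562 cells were treated for 24 h at 37 °C with compound in 11-point 3-fold dilution (top 10 uM final, DMSO ≤0.25%). Lysates then went to one-step RT-qPCR measuring canonical-junction mRNA, normalized to GAPDH, GUSB or PPIA.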

MYB mRNA = experiment: RT-qPCR splicing assay, MYB canonical junction (CJ) and alternative junction (AJ) mRNA; type: cell-based, human; conditions: Homo sapiens; for AC50: increase in MYB alternative junction (AJ) mRNA, read-out: MYB AJ AC50
Summary of the method: (§1)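 A673 or K562 cells were treated for 24 h at 37 °C with an 11-point 3-fold compound dilution series (top final concentration 10 uM, DMSO ≤0.25%). After lysis, one-step TaqMan RT-qPCR quantified junction transcripts, normalized to PPIA for A673 or to GAPDH/GUSB for K562.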

[1] = tested on: K562 (human chronic myelogenous leukemia) cells; experiment: Cell Titer Glo 2.0 cell viability assay; type: cell-based; conditions: Homo sapiens, K562, 72 h, K562 cells, 72 hours, Cell Titer Glo 2.0; read-out: K562 GI50
HTT mRNA = experiment: RT-qPCR splicing assay, HTT canonical junction (CJ) and alternative junction (AJ) mRNA; type: cell-based, human; conditions: Homo sapiens; for AC50: increase in HTT alternative junction (AJ) mRNA, read-out: HTT AJ AC50
Summary of the method: as §1

[2] = Table 5 panel, canonical junction qPCR, compound concentration having 50% response in CJ decrease, read-out: MYB IC50 (decrease in CJ mRNA levels)
[3] = decrease in MYB canonical junction (CJ) mRNA, RT-qPCR, read-out: MYB CJ IC50
[4] = decrease in HTT canonical junction (CJ) mRNA, RT-qPCR, read-out: HTT CJ IC50
[5] = Table 5 panel, canonical junction qPCR, compound concentration having 50% response in CJ decrease, read-out: HTT IC50 (decrease in CJ mRNA levels)

SMILES | pIC50 (Target C) | pIC50 (MYB mRNA; [2]) | pIC50 (MYB mRNA; [3]) | AC50 (MYB mRNA; RT-qPCR) | GI50 [1] | pIC50 (HTT mRNA; [4]) | AC50 (HTT mRNA; RT-qPCR) | pIC50 (HTT mRNA; [5])
Cc1cn2cc(-c3cc(F)c4c(=O)n([C@H]5CCNC[C@@H]5F)cnc4c3)cc(F)c2n1 (relative stereo) [Compound 341, 5-fluoro-7-(8-fluoro-2-methylimidazo[1,2-a]pyridin-6-yl)-3-(trans-3-fluoropiperidin-4-yl)quinazolin-4(3H)-one] | 5.00 to 6.00 | 6.00 to 7.00 | > 7.00 | 0.1 to 1 µM | 0.1 to 1 µM | 6.00 to 7.00 | 0.1 to 1 µM | 6.00 to 7.00
Cc1cn2cc(-c3cc(F)c4c(=O)n([C@H]5CCN[C@@H](C)C5)cnc4c3)cc(F)c2n1 (relative stereo) [Compound 343, cis-5-fluoro-7-(8-fluoro-2-methylimidazo[1,2-a]pyridin-6-yl)-3-(2-methylpiperidin-4-yl)quinazolin-4(3H)-one] | 6.00 to 7.00 | > 7.00 | > 7.00 | < 0.1 µM | 0.1 to 1 µM | 6.00 to 7.00 | 0.1 to 1 µM | 6.00 to 7.00
Cc1cn2nc(-c3cc(F)c4c(=O)n([C@H]5CCNC6(CC6)C5)cnc4c3)cc(C)c2n1 (single isomer, unassigned) [Compound 357] | > 7.00 | > 7.00 | > 7.00 | < 0.1 µM | < 0.1 µM | > 7.00 | < 0.1 µM | > 7.00
CN1CCN(c2ccc3c(=O)n(-c4ccc5nn(C)cc5c4)cnc3c2)CC1 [Compound 152] | < 5.00 | < 5.00 | < 5.00 | 1 to 10 µM | 1 to 10 µM | < 5.00 | > 10 µM | < 5.00
Cn1cc2cc(-n3cnc4cc(N5CCNCC5)ccc4c3=O)ccc2n1 [Compound 153] |  | 5.00 to 6.00 | < 5.00 | > 10 µM |  | < 5.00 | > 10 µM | < 5.00
Cc1cc(-c2ccc3c(=O)n(C4CCN(C)CC4)cnc3c2)cc2cn(C)nc12 [Compound 156] |  | 5.00 to 6.00 | 5.00 to 6.00 | 1 to 10 µM |  | 5.00 to 6.00 | 1 to 10 µM | 5.00 to 6.00
Cc1cc(-c2ccc3c(=O)n(C4CC(C)(C)NC(C)(C)C4)cnc3c2)cc2cn(C)nc12 [Compound 157] |  | 5.00 to 6.00 | 5.00 to 6.00 | 1 to 10 µM |  | < 5.00 | > 10 µM | < 5.00
Cn1cc2cc(-n3cnc4cc(C5=CCNCC5)ccc4c3=O)ccc2n1 [Compound 158] |  | < 5.00 | < 5.00 | > 10 µM |  | < 5.00 | > 10 µM | < 5.00
CN1CC=C(c2ccc3c(=O)n(-c4ccc5nn(C)cc5c4)cnc3c2)CC1 [Compound 159] |  | < 5.00 | < 5.00 | > 10 µM |  | < 5.00 | > 10 µM | < 5.00
CCN1CCC(n2ncc3cc(-c4cc(C)c5nc(C)cn5n4)ccc3c2=O)CC1 [Compound 266] | 6.00 to 7.00 | 6.00 to 7.00 | > 7.00 | 0.1 to 1 µM | 0.1 to 1 µM | > 7.00 | < 0.1 µM | > 7.00
Cc1cn2nc(-c3ccc4c(c3)CCN(C3CCNC(C)(C)C3)C4=O)cc(C)c2n1 (stereo not shown) [Compound 267] | 5.00 to 6.00 | 5.00 to 6.00 | > 7.00 | 1 to 10 µM | 1 to 10 µM | 6.00 to 7.00 | 1 to 10 µM | 5.00 to 6.00
Cc1cn2nc(-c3ccc4c(c3)CCN(C3CCN(C)CC3)C4=O)cc(C)c2n1 [Compound 268] | < 5.00 | 5.00 to 6.00 | 6.00 to 7.00 | 1 to 10 µM | 1 to 10 µM | 5.00 to 6.00 | 1 to 10 µM | 5.00 to 6.00
Cc1cn2nc(-c3ccc4c(c3)CCN(C3CCNC3)C4=O)cc(C)c2n1 (stereo not shown) [Compound 269] | < 5.00 | < 5.00 | < 5.00 | > 10 µM | > 10 µM | < 5.00 | > 10 µM | < 5.00
CCN1CCC(N2CCc3cc(-c4cc(C)c5nc(C)cn5n4)ccc3C2=O)CC1 [Compound 270] | < 5.00 | 5.00 to 6.00 | 5.00 to 6.00 | 1 to 10 µM | 1 to 10 µM | 5.00 to 6.00 | 1 to 10 µM | 5.00 to 6.00
Cc1cn2nc(-c3ccc4c(=O)n(C5CCN(C)C5)ncc4c3)cc(C)c2n1 (stereo not shown) [Compound 271] | 5.00 to 6.00 | 5.00 to 6.00 | 5.00 to 6.00 | 1 to 10 µM | 1 to 10 µM | 5.00 to 6.00 | 1 to 10 µM | 5.00 to 6.00
Cc1cn2nc(-c3ccc4c(=O)n([C@@H]5CCN[C@H](C)C5)ncc4c3)cc(C)c2n1 [Compound 272] | 6.00 to 7.00 | > 7.00 | 6.00 to 7.00 | < 0.1 µM | 0.1 to 1 µM | 6.00 to 7.00 | < 0.1 µM | > 7.00
Cc1cn2nc(-c3ccc4c(=O)n(C5CCNC6(CC6)C5)ncc4c3)cc(C)c2n1 (stereo not shown) [Compound 274] | > 7.00 | > 7.00 | > 7.00 | < 0.1 µM | 0.1 to 1 µM | > 7.00 | < 0.1 µM | > 7.00
Cc1cn2cc(-c3ccc4c(=O)n(C5CCNCC5)ccc4c3)cc(F)c2n1 [Compound 276] | > 7.00 | > 7.00 | > 7.00 | < 0.1 µM | < 0.1 µM | > 7.00 | < 0.1 µM | > 7.00
Cc1cn2nc(-c3ccc4c(=O)n([C@@H]5CCN(C)[C@H](C)C5)ncc4c3)cc(C)c2n1 [Compound 277] | 5.00 to 6.00 | 6.00 to 7.00 | 6.00 to 7.00 | 0.1 to 1 µM | 1 to 10 µM | 6.00 to 7.00 | 0.1 to 1 µM | 6.00 to 7.00
Cc1cn2nc(-c3ccc4c(=O)n([C@H]5CCN(C)[C@H](C)C5)ncc4c3)cc(C)c2n1 [Compound 278] | 6.00 to 7.00 | 6.00 to 7.00 | 6.00 to 7.00 | 0.1 to 1 µM | 0.1 to 1 µM | > 7.00 | < 0.1 µM | > 7.00
Cc1cn2nc(-c3ccc4c(=O)n(C5CCN(C)CC5)cnc4c3F)cc(C)c2n1 [Compound 290] | 6.00 to 7.00 | 6.00 to 7.00 | 6.00 to 7.00 | 0.1 to 1 µM |  | 6.00 to 7.00 | 0.1 to 1 µM | 6.00 to 7.00
